# Reference: ChEMBL document CHEMBL3885861, “Open TG-GATES”
# Species: Rattus norvegicus
# Experiment: Open TG-GATES - Regimen: Daily Repeat
# Format: toxicity, organism-based, Sprague-Dawley
# Set-up: regimen Daily Repeat, gender Male, age 6 weeks
# Details: in vivo, po, 30 mg/kg, route gavage, dose level Low; for APTT / Bas / Eos / Fbg / Hb / Ht / Lym / MCH / MCHC / MCV / Mono / Neu / PT / Plat / RBC / Ret / WBC: tissue Blood; for KIDNEY_L / KIDNEY_R / KIDNEY_TOTAL: tissue Kidney; for LIVER: tissue Liver; for A/G / ALP / ALT / AST / BUN / CRE / Ca / Cl / DBIL / GLC / IP / K / LDH / Na / PL / RALB / TBIL / TC / TG / TP / gamma-GTP: tissue Plasma
structure (smiles),measurement,setting,value
ClC(Cl)(Cl)Cl [CARBON TETRACHLORIDE],TERMINAL_BW,"72 h, time 3 day",222 g
same,APTT,"72 h, time 3 day",18.7 s
same,Bas,"72 h, time 3 day",0%
same,Eos,"72 h, time 3 day",1%
same,Fbg,"72 h, time 3 day",237.4 mg/dL
same,Hb,"72 h, time 3 day",13.4 g/dL
same,Ht,"72 h, time 3 day",39.2%
same,Lym,"72 h, time 3 day",77.4%
same,MCH,"72 h, time 3 day",22.1 pg
same,MCHC,"72 h, time 3 day",34.1%
same,MCV,"72 h, time 3 day",64.8 fL
same,Mono,"72 h, time 3 day",2.4%
same,Neu,"72 h, time 3 day",18.8%
same,PT,"72 h, time 3 day",11.6 s
same,Plat,"72 h, time 3 day",134.7 x10_4/uL
same,RBC,"72 h, time 3 day",606.8 x10_4/ul
same,Ret,"72 h, time 3 day",7.5%
same,WBC,"72 h, time 3 day",108.2 x10_2/uL
same,KIDNEY_L,"72 h, time 3 day",1 g
same,KIDNEY_R,"72 h, time 3 day",1 g
same,KIDNEY_TOTAL,"72 h, time 3 day",1.9 g
same,LIVER,"72 h, time 3 day",11.4 g
same,A/G,"72 h, time 3 day",1.4
same,ALP,"72 h, time 3 day",1206 IU/L
same,ALT,"72 h, time 3 day",44.4 IU/L
same,AST,"72 h, time 3 day",65.8 IU/L
same,BUN,"72 h, time 3 day",15.2 mg/dL
same,CRE,"72 h, time 3 day",0.4 mg/dL
same,Ca,"72 h, time 3 day",10.8 mg/dL
same,Cl,"72 h, time 3 day",103.4 meq/L
same,DBIL,"72 h, time 3 day",0.072 mg/dL
same,GLC,"72 h, time 3 day",197.8 mg/dL
same,IP,"72 h, time 3 day",7.3 mg/dL
same,K,"72 h, time 3 day",4 meq/L
same,LDH,"72 h, time 3 day",206.4 IU/L
same,Na,"72 h, time 3 day",140.6 meq/L
same,PL,"72 h, time 3 day",166 mg/dL
same,RALB,"72 h, time 3 day",3.2 g/dL
same,TBIL,"72 h, time 3 day",0.1 mg/dL
same,TC,"72 h, time 3 day",86.6 mg/dL
same,TG,"72 h, time 3 day",72.6 mg/dL
same,TP,"72 h, time 3 day",5.6 g/dL
same,gamma-GTP,"72 h, time 3 day",1.4 IU/L
same,TERMINAL_BW,"[…], time 7 day",246 g
same,TERMINAL_BW,"[…], time 14 day",300.3 g
same,TERMINAL_BW,"[…], time 28 day",401.4 g
same,APTT,"[…], time 7 day",19.6 s
same,Bas,"[…], time 7 day",0%
same,Eos,"[…], time 7 day",0.8%
same,Fbg,"[…], time 7 day",232.6 mg/dL
same,Hb,"[…], time 7 day",14.1 g/dL
same,Ht,"[…], time 7 day",41%
same,Lym,"[…], time 7 day",82%
same,MCH,"[…], time 7 day",21.2 pg
same,MCHC,"[…], time 7 day",34.5%
same,MCV,"[…], time 7 day",61.7 fL
same,Mono,"[…], time 7 day",2.6%
same,Neu,"[…], time 7 day",14%
same,PT,"[…], time 7 day",11.9 s
same,Plat,"[…], time 7 day",112.6 x10_4/uL
same,RBC,"[…], time 7 day",666.4 x10_4/ul
same,Ret,"[…], time 7 day",5.5%
same,WBC,"[…], time 7 day",96.8 x10_2/uL
same,APTT,"[…], time 14 day",20.3 s
same,Bas,"[…], time 14 day",0%
same,Eos,"[…], time 14 day",0.8%
same,Fbg,"[…], time 14 day",238.4 mg/dL
same,Hb,"[…], time 14 day",14.6 g/dL
same,Ht,"[…], time 14 day",43%
same,Lym,"[…], time 14 day",80%
same,MCH,"[…], time 14 day",20.1 pg
same,MCHC,"[…], time 14 day",33.9%
same,MCV,"[…], time 14 day",59.4 fL
same,Mono,"[…], time 14 day",2%
same,Neu,"[…], time 14 day",16.8%
same,PT,"[…], time 14 day",12 s
same,Plat,"[…], time 14 day",113.3 x10_4/uL
same,RBC,"[…], time 14 day",724.8 x10_4/ul
same,Ret,"[…], time 14 day",3.7%
same,WBC,"[…], time 14 day",110.3 x10_2/uL
same,APTT,"[…], time 28 day",21.2 s
same,Bas,"[…], time 28 day",0%
same,Eos,"[…], time 28 day",1%
same,Fbg,"[…], time 28 day",238 mg/dL
same,Hb,"[…], time 28 day",14.8 g/dL
same,Ht,"[…], time 28 day",43.3%
same,Lym,"[…], time 28 day",85.4%
same,MCH,"[…], time 28 day",19.1 pg
same,MCHC,"[…], time 28 day",34.2%
same,MCV,"[…], time 28 day",55.8 fL
same,Mono,"[…], time 28 day",2.8%
same,Neu,"[…], time 28 day",10.2%
same,PT,"[…], time 28 day",12.3 s
same,Plat,"[…], time 28 day",113.3 x10_4/uL
same,RBC,"[…], time 28 day",776.8 x10_4/ul
same,Ret,"[…], time 28 day",2.8%
same,WBC,"[…], time 28 day",104.8 x10_2/uL
same,KIDNEY_L,"[…], time 7 day",1 g
same,KIDNEY_R,"[…], time 7 day",1 g
same,KIDNEY_TOTAL,"[…], time 7 day",2.1 g
same,KIDNEY_L,"[…], time 14 day",1.2 g
same,KIDNEY_R,"[…], time 14 day",1.2 g
same,KIDNEY_TOTAL,"[…], time 14 day",2.3 g
same,KIDNEY_L,"[…], time 28 day",1.3 g
same,KIDNEY_R,"[…], time 28 day",1.3 g
same,KIDNEY_TOTAL,"[…], time 28 day",2.7 g
same,LIVER,"[…], time 7 day",12.4 g
same,LIVER,"[…], time 14 day",14.4 g
same,LIVER,"[…], time 28 day",19.2 g
same,A/G,"[…], time 7 day",1.6
same,ALP,"[…], time 7 day",1004.8 IU/L
same,ALT,"[…], time 7 day",39.2 IU/L
same,AST,"[…], time 7 day",70.8 IU/L
same,BUN,"[…], time 7 day",14.8 mg/dL
same,CRE,"[…], time 7 day",0.4 mg/dL
same,Ca,"[…], time 7 day",10.7 mg/dL
same,Cl,"[…], time 7 day",104.8 meq/L
same,DBIL,"[…], time 7 day",0.076 mg/dL
same,GLC,"[…], time 7 day",200.8 mg/dL
same,IP,"[…], time 7 day",7.7 mg/dL
same,K,"[…], time 7 day",4.1 meq/L
same,LDH,"[…], time 7 day",202 IU/L
same,Na,"[…], time 7 day",141.6 meq/L
same,PL,"[…], time 7 day",159.8 mg/dL
same,RALB,"[…], time 7 day",3.5 g/dL
same,TBIL,"[…], time 7 day",0.1 mg/dL
same,TC,"[…], time 7 day",75.2 mg/dL
same,TG,"[…], time 7 day",87.2 mg/dL
same,TP,"[…], time 7 day",5.6 g/dL
same,gamma-GTP,"[…], time 7 day",1.2 IU/L
same,A/G,"[…], time 14 day",1.5
same,ALP,"[…], time 14 day",898.4 IU/L
same,ALT,"[…], time 14 day",42.2 IU/L
same,AST,"[…], time 14 day",75 IU/L
same,BUN,"[…], time 14 day",15.4 mg/dL
same,CRE,"[…], time 14 day",0.4 mg/dL
same,Ca,"[…], time 14 day",10.5 mg/dL
same,Cl,"[…], time 14 day",103.4 meq/L
same,DBIL,"[…], time 14 day",0.056 mg/dL
same,GLC,"[…], time 14 day",201.4 mg/dL
same,IP,"[…], time 14 day",8 mg/dL
same,K,"[…], time 14 day",3.7 meq/L
same,LDH,"[…], time 14 day",207.4 IU/L
same,Na,"[…], time 14 day",141.6 meq/L
same,PL,"[…], time 14 day",138.6 mg/dL
same,RALB,"[…], time 14 day",3.6 g/dL
same,TBIL,"[…], time 14 day",0.1 mg/dL
same,TC,"[…], time 14 day",67.4 mg/dL
same,TG,"[…], time 14 day",55 mg/dL
same,TP,"[…], time 14 day",6 g/dL
same,gamma-GTP,"[…], time 14 day",1 IU/L
same,A/G,"[…], time 28 day",1.3
same,ALP,"[…], time 28 day",634.2 IU/L
same,ALT,"[…], time 28 day",40 IU/L
same,AST,"[…], time 28 day",75.2 IU/L
same,BUN,"[…], time 28 day",17.2 mg/dL
same,CRE,"[…], time 28 day",0.4 mg/dL
same,Ca,"[…], time 28 day",10.6 mg/dL
same,Cl,"[…], time 28 day",102.2 meq/L
same,DBIL,"[…], time 28 day",0.072 mg/dL
same,GLC,"[…], time 28 day",211.2 mg/dL
same,IP,"[…], time 28 day",6.6 mg/dL
same,K,"[…], time 28 day",3.9 meq/L
same,LDH,"[…], time 28 day",228 IU/L
same,Na,"[…], time 28 day",140.6 meq/L
same,PL,"[…], time 28 day",132 mg/dL
same,RALB,"[…], time 28 day",3.5 g/dL
same,TBIL,"[…], time 28 day",0.1 mg/dL
same,TC,"[…], time 28 day",59.6 mg/dL
same,TG,"[…], time 28 day",86.6 mg/dL
same,TP,"[…], time 28 day",6.2 g/dL
same,gamma-GTP,"[…], time 28 day",0.8 IU/L
